Reference: the NIST ThermoML archive (doi:10.1021/acs.jced.8b00153)
± gives the expanded uncertainty stated by the source.

Experiment: refractive index (Na D-line) (dimensionless)
Conditions: 100 kPa, Liquid, Standard Abbe refractometry

Row | SMILES | refractive index (283.15 K) | refractive index (285.65 K) | refractive index (288.15 K) | refractive index (290.65 K) | refractive index (293.15 K) | refractive index (295.65 K) | refractive index (298.15 K) | refractive index (300.65 K) | refractive index (303.15 K) | refractive index (305.65 K) | refractive index (308.15 K) | refractive index (310.65 K) | refractive index (313.15 K) | refractive index (315.65 K) | refractive index (318.15 K) | refractive index (320.65 K) | refractive index (323.15 K) | refractive index (325.65 K) | refractive index (328.15 K) | refractive index (330.65 K) | further results
1 | CCc1cccs1 [2-ethylthiophene] | 1.51841 ± 0.00037 | 1.51699 ± 0.00037 | 1.51557 ± 0.00037 | 1.51417 ± 0.00037 | 1.51272 ± 0.00037 | 1.51125 ± 0.00037 | 1.50981 ± 0.00037 | 1.50841 ± 0.00037 | 1.50698 ± 0.00037 | 1.50556 ± 0.00037 | 1.50413 ± 0.00037 | 1.50269 ± 0.00037 | 1.50125 ± 0.00037 | 1.49981 ± 0.00037 | 1.49836 ± 0.00037 | 1.49695 ± 0.00037 | 1.4955 ± 0.00037 | 1.49405 ± 0.00037 | 1.49261 ± 0.00037 | 1.49116 ± 0.00037 | refractive index (333.15 K): 1.48973 ± 0.00037; refractive index (335.65 K): 1.48827 ± 0.00037; refractive index (338.15 K): 1.48684 ± 0.00037
2 | CCc1ccco1 [2-ethylfuran] | 1.44533 ± 0.00033 | 1.4439 ± 0.00033 | 1.44245 ± 0.00033 | 1.44101 ± 0.00033 | 1.43956 ± 0.00033 | 1.43817 ± 0.00033 | 1.43672 ± 0.00033 | 1.43531 ± 0.00033 | 1.43387 ± 0.00033 | 1.43244 ± 0.00033 | 1.431 ± 0.00033 | 1.42958 ± 0.00033 | 1.42814 ± 0.00033 | 1.42671 ± 0.00033 | 1.42528 ± 0.00033 | 1.42385 ± 0.00033 | 1.42241 ± 0.00033 | 1.42097 ± 0.00033 | 1.41953 ± 0.00033 | 1.4181 ± 0.00033 | refractive index (333.15 K): 1.41669 ± 0.00033; refractive index (335.65 K): 1.41523 ± 0.00033; refractive index (338.15 K): 1.41379 ± 0.00033
